Publication PMC10580381 (ACS Pharmacology & Translational Science, 2023)

What was measured:
H820 cells [1] = system: H820 cells
H1975 cells [2] = system: H1975 cells
H820 cells [3] = conditions: H820, gefitinib 5 μM alone, 48 h
H1975 cells [4] = conditions: H1975, gefitinib 5 μM alone, 48 h
in vivo = conditions: NOD SCID γ (NSG), mouse
Description: A Zorbax Eclipse XDB-C18 column (4.6 × 250 mm^2, 5 μm, Agilent Technologies) was used to achieve chromatographic separation of the analytes. An isocratic chromatographic system was used. The mobile phase was water:acetonitrile (35:65, v/v) with 0.1% formic acid at a flow rate of 0.25 mL/min. The injection volume of the sample was 10 μL. The triple quadrupole mass spectrometer was operated in positive electrospray ionization mode. The spray voltage was +3000 V, and the vaporizer temperature was 280 °C. The pressure of the collision gas was 1.0 mTorr.

A549 cells = conditions: A549, gefitinib 5 μM alone, 48 h
Description: At least 10,000 events were acquired using a LSRFortessa cell analyzer, and the flow cytometric data were analyzed using BD FACSDiva software (BD Biosciences). Apoptotic cells were defined as the ones stained positive for both Annexin V-FITC and 7-AAD.

[5] = system: histone H3 acetylation (Lys 9,14) (AcH3); assay: Western blot of histone H3 acetylation (AcH3) in H1975 cells; format: cell-based, human; conditions: 10 μM, 24 h (Figure 1A,B)
Description: An increase of histone acetylation is a well-characterized hallmark of HDAC inhibition. […] After the cancer cells were treated with the designated drug candidates, they were harvested in lysis buffer (0.05 M HEPES, 0.15 M NaCl, 2 mM EDTA, 10% v/v glycerol, and 1% v/v Triton X-100, pH 7.4) supplemented with protease and phosphatase inhibitors. Sodium dodecyl sulfate poly(acrylamide) gel electrophoresis (SDS-PAGE) was used to separate the different proteins in the whole cell lysates, which were then transferred to a poly(vinylidene difluoride) membrane for immunoblot analysis using different specific antibodies (acetylated histone H3, acetylated α-tubulin, histone H3, or GAPDH; Cell Signaling Technology). The bands corresponding to specific proteins of interest were visualized by using the WesternBright ECL HRP substrate (Advansta, San Jose, California). A chemiluminescent Western blot signal was detected and analyzed using a ChemiDoc MP system (Bio-Rad Laboratories, Hercules, California).

ABCG2 = molecular target: T1, ABCG2 (Homo sapiens, UniProt Q9UNQ0); assay: ABC transporter-mediated drug efflux assay, ABCG2 (pheophorbide A); conditions: FTC 1 μM, control ABCG2 inhibitor, HEK293/ABCG2
T1 sequence (Q9UNQ0 1-655): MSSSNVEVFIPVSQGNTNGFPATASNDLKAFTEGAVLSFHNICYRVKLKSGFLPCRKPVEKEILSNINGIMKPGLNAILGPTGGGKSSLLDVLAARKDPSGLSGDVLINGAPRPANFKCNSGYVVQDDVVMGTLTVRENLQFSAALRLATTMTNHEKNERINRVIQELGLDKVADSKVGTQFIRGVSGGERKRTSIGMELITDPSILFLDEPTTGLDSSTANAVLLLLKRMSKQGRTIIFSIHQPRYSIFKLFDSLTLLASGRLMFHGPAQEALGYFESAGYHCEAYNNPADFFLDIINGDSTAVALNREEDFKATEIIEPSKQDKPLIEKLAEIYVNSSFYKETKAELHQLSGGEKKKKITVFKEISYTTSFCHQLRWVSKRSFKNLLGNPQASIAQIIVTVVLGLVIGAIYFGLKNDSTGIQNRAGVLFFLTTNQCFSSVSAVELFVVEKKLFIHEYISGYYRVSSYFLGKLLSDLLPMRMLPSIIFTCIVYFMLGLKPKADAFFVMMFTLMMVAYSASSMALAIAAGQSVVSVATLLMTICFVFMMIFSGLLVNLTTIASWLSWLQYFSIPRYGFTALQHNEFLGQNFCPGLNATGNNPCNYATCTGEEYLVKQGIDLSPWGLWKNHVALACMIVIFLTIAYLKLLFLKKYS
Description: (§1) Specific inhibitors for ABCB1 (PSC833) and ABCG2 (FTC) were used as a control for comparison. Cells were analyzed by using a LSRFortessa cell analyzer (BD Biosciences). […] At least 10,000 events were collected for quantitative analysis.

ABCB1 = ABCB1 (Homo sapiens, UniProt P08183); assay: ABC transporter-mediated drug efflux assay, ABCB1 (rhodamine 123); conditions: PSC833 1 μM, control ABCB1 inhibitor, HEK293/ABCB1
Description: as §1

Bim (BCL2L11) = assay: Real-time PCR of Bim expression in H1975; format: cell-based, human; conditions: H1975, 24 h, flunarizine 2.5, 5, or 10 μM or SAHA 0.25, 0.5, or 1 μM; all concentrations tested
Description: (§2) Reverse transcription was performed using 1 μg of total RNA sample with the PrimeScript First Strand cDNA Synthesis Kit (TaKaRa Biomedical Technology) at 37 °C for 10 min. The cDNA was then amplified by real-time PCR to determine the relative expression of p27^Kip1 and BIM using the KAPA SYBR FAST qPCR kit (KapaBiosystems, Wilmington, Massachusetts) with a LightCycler 480 Instrument I instrument (Roche Applied Science, Indianapolis, Indiana). The house-keeping gene GAPDH was also measured for normalization. Specific primer sequences used in the PCR reactions are p27^Kip1, forward 5′-[…]-3′ and reverse 5′-[…]-3′; Bim, forward 5′-[…]-3′ and reverse 5′-[…]-3′; and GAPDH, forward 5′-[…]-3′ and reverse 5′-[…]-3′. The PCR temperature program was set at 95 °C for 5 min, followed by 35 cycles of 95 °C for 10 s and 60 °C for 10 s. The fluorescent signal was detected at the end of the PCR elongation step of every cycle to keep track of the amount of amplified DNA. ΔCt was calculated by subtracting the Ct of GAPDH from the Ct of Bim or p27^Kip1. Fold change in gene expression was analyzed by the 2^–ΔΔCt method.

[6] = cited from earlier work
p27^Kip1 (CDKN1B) = assay: Real-time PCR of p27^Kip1 expression in H1975; format: cell-based, human; conditions: H1975, 24 h, flunarizine 2.5, 5, or 10 μM or SAHA 0.25, 0.5, or 1 μM; all concentrations tested
Description: as §2

Sequence of ABCB1 (P08183 whole entry, species assumed): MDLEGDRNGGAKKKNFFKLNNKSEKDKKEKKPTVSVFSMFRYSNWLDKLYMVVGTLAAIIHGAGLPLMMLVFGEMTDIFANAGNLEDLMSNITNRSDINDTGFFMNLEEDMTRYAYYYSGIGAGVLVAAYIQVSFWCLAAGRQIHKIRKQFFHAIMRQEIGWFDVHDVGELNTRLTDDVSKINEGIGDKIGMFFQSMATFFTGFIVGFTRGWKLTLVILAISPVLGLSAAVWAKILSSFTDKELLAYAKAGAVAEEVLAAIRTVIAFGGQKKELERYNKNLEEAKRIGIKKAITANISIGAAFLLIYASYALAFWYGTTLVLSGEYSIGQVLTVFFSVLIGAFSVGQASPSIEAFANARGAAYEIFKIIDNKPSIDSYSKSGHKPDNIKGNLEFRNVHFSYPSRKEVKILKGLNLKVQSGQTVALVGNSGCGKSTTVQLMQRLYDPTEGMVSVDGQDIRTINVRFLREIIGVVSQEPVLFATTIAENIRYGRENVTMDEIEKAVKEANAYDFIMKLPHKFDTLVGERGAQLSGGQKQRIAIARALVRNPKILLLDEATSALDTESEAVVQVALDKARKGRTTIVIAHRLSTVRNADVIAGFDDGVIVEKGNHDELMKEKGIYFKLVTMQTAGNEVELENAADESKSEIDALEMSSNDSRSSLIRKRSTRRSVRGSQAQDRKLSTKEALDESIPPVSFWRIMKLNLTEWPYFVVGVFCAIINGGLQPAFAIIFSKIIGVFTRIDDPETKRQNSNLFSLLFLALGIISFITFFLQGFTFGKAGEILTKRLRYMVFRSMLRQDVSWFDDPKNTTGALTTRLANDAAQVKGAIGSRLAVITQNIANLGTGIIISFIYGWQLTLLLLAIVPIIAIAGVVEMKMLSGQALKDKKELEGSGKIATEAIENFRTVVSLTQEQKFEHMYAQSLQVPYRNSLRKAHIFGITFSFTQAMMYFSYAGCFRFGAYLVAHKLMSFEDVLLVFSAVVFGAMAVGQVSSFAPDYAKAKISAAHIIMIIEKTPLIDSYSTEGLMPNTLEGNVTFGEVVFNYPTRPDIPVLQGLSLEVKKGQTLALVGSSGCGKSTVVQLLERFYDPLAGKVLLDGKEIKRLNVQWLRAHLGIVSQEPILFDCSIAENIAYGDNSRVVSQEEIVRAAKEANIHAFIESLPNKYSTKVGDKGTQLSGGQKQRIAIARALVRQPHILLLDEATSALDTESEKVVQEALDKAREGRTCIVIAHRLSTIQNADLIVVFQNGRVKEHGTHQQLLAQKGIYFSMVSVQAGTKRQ

COc1cc2ncnc(Nc3ccc(F)c(Cl)c3)c2cc1OCCCN1CCOCC1 [gefitinib] showed a viability (H1650 cells) of 52 ± 8%, a viability (H820 cells [1]) of 66 ± 8% and a viability (H1975 cells [2]) of 61 ± 5%. The apoptotic cell population (H820 cells [3]) was 7.9 ± 1.6%, the apoptotic cell population (H1975 cells [4]) was 8.9 ± 1.3% and the concentration at 4 h (in vivo) was 32 ± 6 nM. The apoptotic cell population (A549 cells) was 7.6 ± 0.9%.

With Nc1nc(N)c2nc(-c3ccccc3)c(N)nc2n1 [triamterene] the “fold increase in histone H3 acetylation (AcH3) over the vehicle control” value [5] was 75 ± 6 fold.

With COc1ccc2c3c([nH]c2c1)[C@H](C=C(C)C)N1C(=O)[C@@H]2CCCN2C(=O)[C@@H]1C3 [FTC] the “efflux of pheophorbide A (ABCG2 substrate)” value (ABCG2) was “potently inhibited the efflux”.

With C/C=C/C[C@@H](C)C(=O)[C@H]1C(=O)N[C@@H](C(C)C)C(=O)N(C)CC(=O)N(C)[C@@H](CC(C)C)C(=O)N[C@@H](C(C)C)C(=O)N(C)[C@@H](CC(C)C)C(=O)N[C@@H](C)C(=O)N[C@H](C)C(=O)N(C)[C@@H](CC(C)C)C(=O)N(C)[C@@H](CC(C)C)C(=O)N(C)[C@@H](C(C)C)C(=O)N1C [PSC833] the “efflux of rhodamine 123 (ABCB1 substrate)” value (ABCB1) was “potently inhibited the efflux”.

In the case of C(=C\c1ccccc1)/CN1CCN(C(c2ccccc2)c2ccccc2)CC1 [cinnarizine], the “fold increase in histone H3 acetylation (AcH3) over the vehicle control” value [5] is reported as 15 ± 3 fold.

For O=C(CCCCCCC(=O)Nc1ccccc1)NO [SAHA, Vorinostat], the Bim expression (Bim (BCL2L11)) is listed as “significantly increase”, the elimination half-life [6] is listed as ~2 h and the “p27^Kip1 expression” value (p27^Kip1 (CDKN1B)) is listed as “significantly increase”.
